According to patent US12472185B2, “Methods for killing antibiotic tolerant bacteria” (THE PENN STATE RESEARCH FOUNDATION, priority 2020, dated 2025):
“And” between values parts separate entries of the source, which are not always exact repeats. Identical values can stand only once.

Assays:
E. coli K-12 BW25113 = assay: Minimum inhibitory concentration (MIC); type: cell-based; conditions: Escherichia coli, LB, 24 hr
Procedure: (§1) The bacteria used in this study are E. coli K-12 BW25113 (Baba et al., 2006), S. aureus ATCC29213, and P. aeruginosa PA14 (Liberati et al., 2006). Lysogeny broth (LB; Bertani, 1951) was used at 37° C. for culturing the bacteria. 2-(Aminomethyl)-indole was obtained from Sigma-Aldrich (catalog number 563838), and 2-methyl-5-nitro-3-phenyl-1H-indole was obtained from ChemBridge (San Diego, CA).
(§2) To determine the MICs of NPIMA and 5-iodoindole for E. coli K-12, S. aureus, and P. aeruginosa PA14, cells were inoculated into LB at varying concentrations and grown for 24 hr. The MIC was determined as the lowest concentration that prevented an increase in growth as evidenced by a lack of change of turbidity.

P. aeruginosa PA14 = assay: Minimum inhibitory concentration (MIC); type: cell-based; conditions: Pseudomonas aeruginosa, LB, 24 hr
Procedure: as §1, §2

S. aureus ATCC29213 = assay: Minimum inhibitory concentration (MIC); type: cell-based; conditions: Staphylococcus aureus, LB, 24 hr
Procedure: as §1, §2

[1] = system: P. aeruginosa PA14 exponential cells; assay: Survival of exponentially-growing cells (drop assay); type: cell-based, Pseudomonas aeruginosa; conditions: 100 μM
Procedure: (§3) FIG. 2. NPIMA eradicates Escherichia coli, Pseudomonas aeruginosa, and Staphylococcus aureus exponential cells. Survival after 6 hr for (a) E. coli BW25113 with NPIMA and 5-iodoindole at 100 μM, (b) P. aeruginosa PA14 with NPIMA and 5-iodoindole at 100 μM, and (c) S. aureus with NPIMA and 5-iodoindole at 200 μM. Asterisk indicates no viable cells detected. NPIMA, 5-nitro-3-phenyl-1H-indol-2-yl-methylamine hydrochloride.
(§4) For bacterial viability, cells were washed twice with 0.85% NaCl, resuspended in 1×PBS, and cell counts were determined via the drop assay (Donegan, Matyac, Seidler, & Porteous, 1991). For human cell viability, pre-cultured human cancer HT-29 cells were dispensed in 98 μl in 96-well plates with approximately 5,000 cells/well. NPIMA was added (2 μl) to produce concentrations of 5, 10, 100, and 200 μM. For controls, Triton X-100 (positive control) and DMSO (negative solvent control), were used, and the medium was used for background. Plates were incubated in a humidified incubator (37° C., 5% CO2) for 24 hr. Cell viability was determined via a cell counting kit (CCK-8 Kit, ab228554; Abcam), and cytotoxicity was determined via the lactate dehydrogenase (LDH) assay (LDH Assay Kit, MK401; Takara).

S. aureus cells = assay: Survival of cells (drop assay); type: cell-based, Staphylococcus aureus; conditions: 200 μM
Procedure: as §3, §4

Cl.NCc1[nH]c2ccc([N+](=O)[O-])cc2c1-c1ccccc1 [NPIMA, [(5-nitro-3-phenyl-1H-indol-2-yl)methyl]amine hydrochloride]
MIC (E. coli K-12 BW25113): 100 µM and 15 µg/mL | MIC (P. aeruginosa PA14): 250 µM | MIC (S. aureus ATCC29213): 100 µM | time to eradicate exponentially-growing P. aeruginosa PA14 cells [1]: 6 h | time to eradicate S. aureus cells (S. aureus cells): 3 h
